Assay results reported in paper PMC6934184, “Selective DNA-PKcs inhibition extends the therapeutic index of localized radiotherapy and chemotherapy” (The Journal of Clinical Investigation, 2019).

Biological target: T1, FGFR3 G697C (Homo sapiens, UniProt P22607, G697C)
T1 construct: purchased Thermo Fisher Scientific (Life Technologies) SelectScreen
Assay: SelectScreen LanthaScreen
Assay type: binding
Conditions: read-out: % displacement
In short: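 NU5455 was profiled across the SelectScreen Broad panel of kinase activity and binding assays. Z'LYTE reactions such as CSF1R ran at apparent Km ATP, while the Adapta CAMK1 assay used ATP listed as 10. Values are given as percent.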

T1 sequence (P22607 23-806 G697C): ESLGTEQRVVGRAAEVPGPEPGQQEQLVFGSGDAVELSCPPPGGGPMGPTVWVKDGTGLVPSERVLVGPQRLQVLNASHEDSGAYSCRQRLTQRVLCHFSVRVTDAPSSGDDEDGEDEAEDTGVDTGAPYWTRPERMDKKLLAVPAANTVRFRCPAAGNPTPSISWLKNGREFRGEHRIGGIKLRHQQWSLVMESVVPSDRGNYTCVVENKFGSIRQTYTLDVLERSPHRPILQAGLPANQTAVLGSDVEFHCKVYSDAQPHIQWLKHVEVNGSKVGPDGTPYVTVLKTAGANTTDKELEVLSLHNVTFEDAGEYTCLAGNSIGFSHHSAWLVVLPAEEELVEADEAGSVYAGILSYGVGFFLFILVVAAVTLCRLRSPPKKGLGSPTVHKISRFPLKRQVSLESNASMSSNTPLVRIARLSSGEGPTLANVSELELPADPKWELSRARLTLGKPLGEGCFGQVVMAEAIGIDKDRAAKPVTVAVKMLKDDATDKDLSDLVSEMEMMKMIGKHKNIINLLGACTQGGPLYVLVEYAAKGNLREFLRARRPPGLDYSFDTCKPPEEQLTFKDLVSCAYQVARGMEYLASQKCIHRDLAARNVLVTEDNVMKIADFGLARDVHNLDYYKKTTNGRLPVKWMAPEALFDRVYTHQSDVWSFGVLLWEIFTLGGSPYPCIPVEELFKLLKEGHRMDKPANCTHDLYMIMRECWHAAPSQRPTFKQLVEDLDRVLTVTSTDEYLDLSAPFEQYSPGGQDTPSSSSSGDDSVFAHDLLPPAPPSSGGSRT

## CN(C(=O)CN1CCOCC1)c1ccc2sc3c(-c4cccc5c(=O)cc(N6CC7CCC(C6)O7)oc45)cccc3c2c1 [NU5455]
  inhibition at 1 µM: 3.1%
